Experiments:
[1] = test system: pulse rate of narcotized cats; test: Increase in pulse rate of narcotized cats by isoproterenol; assay type: in vivo; settings: 1 μg/kg, intravenously; narcotized cats (2-4 kg); average
Protocol: (§1) Isoproterenol (1 μg/kg, administered intravenously) causes increases, averaging 40%, in the pulse rate of narcotized cats (weighing 2-4 kg). β-Sympatholytic agents inhibit such tachycardia. Isoproterenol was administered before, and 10 and 40 minutes after, the intravenous administration of the test substances. Linear relationships exist between the logarithms of the administered doses (mg/kg) of the test substances and the inhibition of isoproterenol-induced tachycardia (%). From these relationships, the doses (ED 50%) which inhibit the isoproterenol-induced tachycardia by 50% are determined.

cardiac β1 -receptors = biological target: T1, cardiac β1 -receptors (Felis catus, UniProt Q9TST6); test: β-Sympatholytic action: inhibition of isoproterenol-induced tachycardia in narcotized cats; assay type: in vivo; settings: for β1 -Sympatholytic action R.A. (relative activity): Propranolol = 1.00, cats, intravenous; for ED50: cat, cats under hexobarbital narcosis, intravenous administration, read-out: β1 -Sympatholytic action ED 50%: dose which inhibits the isoproterenol-induced tachycardia by 50%; for blocking dose for cardiac β1 -receptors: times lower than that of propranolol: versus comparative substance propranolol
T1 construct: pulse rate of narcotized cats (weighing 2-4 kg); from tissue; host or cells: heart of the living cat (in vivo, hexobarbital narcosis)
Protocol: The β-sympatholytic action was tested on cats. […] The following methods were employed in the tests:
as §1, with “(%).” for “(%). From these relationships, the doses (ED 50%) which inhibit the isoproterenol-induced tachycardia by 50% are determined.”
^(1) Inhibition of isoproterenolinduced tachycardia. Cats under
hexobarbital narcosis. Intravenous administration.
^(2) Dose (mg/kg), which inhibits the isoproterenolinduced tachycardi
^(3) Relative activity.

in vivo = settings: mouse; for selectivity ratio: footnote (5) formula is a drawing, read-out: Therapeutic range; for LD50: ip, mice, intraperitoneal administration, read-out: Acute toxicity LD 50
NMRI mice = test: in vivo; settings: mouse

T1 sequence (Q9TST6 whole entry): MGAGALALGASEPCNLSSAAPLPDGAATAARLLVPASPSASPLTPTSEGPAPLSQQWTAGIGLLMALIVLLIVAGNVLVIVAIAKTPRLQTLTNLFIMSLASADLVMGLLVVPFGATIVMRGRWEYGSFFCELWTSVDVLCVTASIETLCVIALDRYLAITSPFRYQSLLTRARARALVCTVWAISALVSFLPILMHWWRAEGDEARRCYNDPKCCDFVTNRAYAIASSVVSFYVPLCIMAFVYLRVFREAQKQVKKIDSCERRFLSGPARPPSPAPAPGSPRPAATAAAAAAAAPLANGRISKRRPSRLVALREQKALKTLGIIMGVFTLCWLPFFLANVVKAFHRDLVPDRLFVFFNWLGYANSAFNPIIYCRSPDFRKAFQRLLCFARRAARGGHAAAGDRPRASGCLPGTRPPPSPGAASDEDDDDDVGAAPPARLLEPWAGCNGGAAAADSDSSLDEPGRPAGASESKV

Structure (SMILES)	increase in the pulse rate [1] [%]	β1 -Sympatholytic action R.A. (relative activity) (cardiac β1 -receptors)	ED50 (cardiac β1 -receptors) [mg/kg]	blocking dose for cardiac β1 -receptors: times lower than that of propranolol (cardiac β1 -receptors) [times]	selectivity ratio (in vivo)	LD50 (in vivo) [mg/kg]	therapeutic range: times greater than for propranolol (NMRI mice) [times]
CC(C)NCC(O)c1ccc(O)c(O)c1 (stereo not shown) [Isoproterenol]	~40	–	–	–	–	–	–
Cc1nnc(C=Cc2ccccc2OCC(O)CNC(C)CCc2ccc(O)cc2)s1 (stereo not shown) [Example 4]	–	6.71	0.021	6.7	1990	41.7	2.6
COc1ccc(CCNCC(O)COc2ccccc2C=Cc2nnc(C)s2)cc1OC (stereo not shown) [Example 2]	–	5.64	0.025	5.6	3250	81.3	4.2

Reference: patent US4353917A, “Amino derivatives of 2-methyl-5-(2-hydroxystyryl)-1,3,4-thiadiazole, their preparation, and formulations containing these compounds” (BASF Aktiengesellschaft, priority 1979, dated 1982)
